The results in this text go back to patent publication US20230135152A1 (ACURASTEM INCORPORATED, priority 2020, published 2023).

Assay [1] has as its target T1, PIKFYVE (Homo sapiens, UniProt Q9Y2I7). Description: PIKFYVE assay (luciferase ADP-Glo kinase assay, Promega). Format: biochemical. Particulars: Table 2. The method in brief:
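ADP generated in the kinase reaction was detected by ADP-Glo luminescence (luciferase).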

Assay [2] concerns the target T1, PIKFYVE. Nature of the assay: Cell-based Pikfyve inhibition activity assay (EEA1 staining, mean vesicle size in BJ fibroblast cells). Particulars: Table 4, 4 hours treatment, 3 μM Apilimod = 100% inhibition. The procedure: BJ fibroblast cells were obtained from American Type Cell Culture (ATCC, CRL-2522). The cells were maintained in DMEM (Genesee Scientific, 25-500) supplemented with 10% fetal bovine serum (Genesee Scientific, 25-514) and 1% penicillin-streptomycin (Genesee Scientific, 25-512) at 37° C. in the atmosphere 5% CO2. BJ fibroblasts were plated into black flat clear bottom 96-well plates (Grenier, 655090) at a density of 3×10^3 per well and were allowed to attach in culture for 8-10 hours before drug treatment. Drugs were tested at eleven doses separated by 3 fold from 0.03 nM to 3000 nM in triplicates for 4 hours at 37° C. After 4 hours, treatment media was aspirated and replaced with 4% Paraformaldehyde (Electron Microscopy Science, 15714-S) and cells were fixed at room temperature for 5 minutes. 4% PFA in wells were then discarded and replaced with a blocking buffer consisting of 1×PBS with 0.1% Tween (Sigma-Aldrich, P1754-500), 5% Donkey Serum (Jackson ImmunoResearch, 017-000-121), and 1% BSA (Caisson Labs, B005-50GM) and incubated at room temperature for 30 minutes. Blocking buffer was then discarded and replaced with a primary EEA1 antibody (Fisher Scientific, BD610457) in a 1:1000 dilution and incubated at 4° C. overnight. Following overnight incubation, plates were washed with 1×PBS three times and incubated with secondary antibody Donkey anti-Mouse IgG, Alexa Fluor 555 (Invitrogen, A31570) (1:1000 dilution) for 1 hour at room temperature in the dark. Subsequently cell plates were washed with 1×PBS three times and can be stored at 4° C. if not being proceeding with imaging procedure.
Images were acquired with 20× objective (ImageXpress MicroConfocal, Molecular Devices) creating z-series of 5 planes (5 steps, […]), 16 tiles per well. Images were then analyzed using a custom CellProfiler protocol to obtain mean vesicle size. The mean vesicle size from 16 images was used as the output for each well. The mean vesicle size from 0.5% DMSO treated condition was considered as having no Pikfyve inhibition activity and the 3 μM Apilimod treated condition was considered as having 100% inhibition activity. The mean vesicle size was converted to % inhibition activity and the data was fitted to a dose-response curve using log(inhibitor) vs normalized response-variable slope using GraphPad Prism.

Molecules are shown by their SMILES.

T1 sequence (Q9Y2I7 whole entry): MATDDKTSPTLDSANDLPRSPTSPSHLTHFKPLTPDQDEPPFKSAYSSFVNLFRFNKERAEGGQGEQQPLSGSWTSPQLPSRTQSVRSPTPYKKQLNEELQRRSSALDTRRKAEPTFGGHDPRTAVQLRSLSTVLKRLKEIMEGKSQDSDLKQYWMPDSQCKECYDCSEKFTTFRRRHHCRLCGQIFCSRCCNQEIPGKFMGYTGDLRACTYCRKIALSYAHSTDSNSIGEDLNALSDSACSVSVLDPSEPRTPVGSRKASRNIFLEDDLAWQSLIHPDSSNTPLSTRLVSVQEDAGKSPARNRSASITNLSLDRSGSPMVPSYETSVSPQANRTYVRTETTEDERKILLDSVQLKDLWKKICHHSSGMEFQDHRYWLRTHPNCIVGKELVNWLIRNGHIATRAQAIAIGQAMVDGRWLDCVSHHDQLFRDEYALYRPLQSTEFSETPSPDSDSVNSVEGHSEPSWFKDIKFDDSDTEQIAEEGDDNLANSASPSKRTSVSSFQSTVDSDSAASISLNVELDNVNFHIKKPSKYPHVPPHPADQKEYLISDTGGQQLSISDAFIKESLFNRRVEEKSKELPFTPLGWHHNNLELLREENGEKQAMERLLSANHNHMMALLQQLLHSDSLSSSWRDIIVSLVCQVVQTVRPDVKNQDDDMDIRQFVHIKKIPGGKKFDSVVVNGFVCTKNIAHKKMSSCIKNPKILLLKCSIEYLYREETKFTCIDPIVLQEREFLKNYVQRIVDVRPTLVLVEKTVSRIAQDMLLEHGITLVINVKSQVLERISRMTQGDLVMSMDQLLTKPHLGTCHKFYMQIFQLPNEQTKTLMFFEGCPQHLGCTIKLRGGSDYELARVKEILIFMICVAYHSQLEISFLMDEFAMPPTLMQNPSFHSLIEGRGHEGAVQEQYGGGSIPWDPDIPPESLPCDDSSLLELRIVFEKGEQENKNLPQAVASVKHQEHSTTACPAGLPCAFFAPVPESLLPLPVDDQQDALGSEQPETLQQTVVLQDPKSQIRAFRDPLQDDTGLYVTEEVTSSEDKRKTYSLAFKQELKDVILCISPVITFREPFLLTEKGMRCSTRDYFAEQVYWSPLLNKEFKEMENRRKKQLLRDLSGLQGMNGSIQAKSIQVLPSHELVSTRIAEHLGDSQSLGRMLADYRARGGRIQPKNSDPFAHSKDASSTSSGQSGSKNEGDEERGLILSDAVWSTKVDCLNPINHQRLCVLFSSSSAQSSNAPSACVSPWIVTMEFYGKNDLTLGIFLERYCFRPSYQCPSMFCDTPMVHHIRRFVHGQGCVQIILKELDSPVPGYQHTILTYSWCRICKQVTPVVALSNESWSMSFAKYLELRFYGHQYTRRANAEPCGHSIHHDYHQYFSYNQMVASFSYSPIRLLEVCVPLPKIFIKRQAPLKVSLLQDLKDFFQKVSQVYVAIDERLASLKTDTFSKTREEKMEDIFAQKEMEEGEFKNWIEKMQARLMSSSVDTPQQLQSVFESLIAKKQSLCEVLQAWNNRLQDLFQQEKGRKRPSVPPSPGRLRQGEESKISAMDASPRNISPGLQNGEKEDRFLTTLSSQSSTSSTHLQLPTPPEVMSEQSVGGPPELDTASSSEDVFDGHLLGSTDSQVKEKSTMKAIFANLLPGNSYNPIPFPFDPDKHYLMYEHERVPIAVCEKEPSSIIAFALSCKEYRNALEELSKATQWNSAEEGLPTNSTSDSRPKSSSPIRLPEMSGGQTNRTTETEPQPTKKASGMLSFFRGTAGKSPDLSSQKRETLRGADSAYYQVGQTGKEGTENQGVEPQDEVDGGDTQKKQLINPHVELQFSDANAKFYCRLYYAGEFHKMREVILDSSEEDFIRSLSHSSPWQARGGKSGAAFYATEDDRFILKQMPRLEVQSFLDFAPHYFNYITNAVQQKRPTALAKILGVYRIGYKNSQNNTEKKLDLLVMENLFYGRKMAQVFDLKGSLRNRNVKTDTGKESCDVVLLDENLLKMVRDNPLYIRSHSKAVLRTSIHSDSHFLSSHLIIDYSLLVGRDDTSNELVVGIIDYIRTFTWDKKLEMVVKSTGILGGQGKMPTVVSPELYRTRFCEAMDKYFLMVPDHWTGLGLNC

Regarding `COc1cccc(-c2ccn(-c3cc(N4CCOCC4)nc(N)n3)n2)c1` [Compound 44, 4-(3-(3-methoxyphenyl)-1H-pyrazol-1-yl)-6-morpholino-pyrimidin-2-amine], the IC50 (usually the concentration needed to halve the response being measured) on PIKFYVE [1] was less than 5 nM. On PIKFYVE [2], the 50% effective concentration (EC50) (in general, the concentration needed to bring the measured effect to its halfway point) was 100 to 500 nM.

On PIKFYVE [1], `Cc1cccc(-c2ccn(-c3cc(N4CCOCC4)nc(OCc4cccnn4)n3)n2)c1` [Compound 54, 4-(2-(pyridazin-3-ylmethoxy)-6-(3-(m-tolyl)-1H-pyrazol-1-yl)pyrimidin-4-yl)morpholine] showed an IC50 of less than 5 nM. At PIKFYVE [2], this compound displayed an EC50 of 20 to 100 nM.

`Cc1cccc(-c2ccn(-c3cc(N4CCOCC4)nc(OCCc4ccnn4C)n3)n2)c1` [Compound 55, 4-(2-(2-(1-methyl-1H-pyrazol-5-yl)ethoxy)-6-(3-(m-tolyl)-1H-pyrazol-1-yl)pyrimidin-4-yl)morpholine] displayed an IC50 on PIKFYVE [1] of less than 5 nM. For the same compound, the EC50 on PIKFYVE [2] is 20 to 100 nM.

As for `Cc1cccc(-c2ccn(-c3cc(N4CCOCC4)nc(OCCc4cnn(C)c4)n3)n2)c1` [Compound 56, 4-(2-(2-(1-methyl-1H-pyrazol-4-yl)ethoxy)-6-(3-(m-tolyl)-1H-pyrazol-1-yl)pyrimidin-4-yl)morpholine], the IC50 at PIKFYVE [1] was less than 5 nM. The EC50 on PIKFYVE [2] is less than 20 nM.

Compound `COc1nc(N2CCOCC2)cc(-n2ccc(-c3cccc(C)c3)n2)n1` [Compound 59, 4-(2-methoxy-6-(3-(m-tolyl)-1H-pyrazol-1-yl)pyrimidin-4-yl)morpholine] had an IC50 against PIKFYVE [1] of 5 to 100 nM. The same compound showed a concentration for a half-maximal effect (EC50) on PIKFYVE [2] of 20 to 100 nM.

Consider `Cc1cccc(-c2ccn(-c3cc(N4CCOCC4)ncn3)n2)c1` [Compound 60, 4-(6-(3-(m-tolyl)-1H-pyrazol-1-yl)pyrimidin-4-yl)morpholine], for which the half-inhibitory concentration (IC50) against PIKFYVE [1] lay in the range of 101 to 1000 nM. In addition, the 50% effective concentration (EC50) on PIKFYVE [2] fell in the range of 500 to 5000 nM.

In turn, `Cc1cccc(-c2ccn(-c3cc(N4CCOCC4)nc(N4CCCC4=O)n3)n2)c1` [Compound 61, 1-(4-morpholino-6-(3-(m-tolyl)-1H-pyrazol-1-yl)pyrimidin-2-yl)pyrrolidin-2-one] had an IC50 against PIKFYVE [1] of 5 to 100 nM. The compound also showed an EC50 at PIKFYVE [2] of 100 to 500 nM.

Take `Cn1cc(CCOc2nc(N3CCOCC3)cc(-n3ccc(OCc4ccccc4)n3)n2)cn1` [Compound 62, 4-(6-(3-(benzyloxy)-1H-pyrazol-1-yl)-2-(2-(1-methyl-1H-pyrazol-4-yl)ethoxy)pyrimidin-4-yl)morpholine]: the 50% inhibitory concentration (IC50) on PIKFYVE [1] is less than 5 nM. On PIKFYVE [2], the EC50 was 20 to 100 nM.

For the compound `Cn1cc(CCOc2nc(N3CCOCC3)cc(-n3ccc(C(=O)Nc4ccccc4)n3)n2)cn1` [Compound 64, 1-(2-(2-(1-methyl-1H-pyrazol-4-yl)ethoxy)-6-morpholinopyrimidin-4-yl)-N-phenyl-1H-pyrazole-3-carboxamide], the half-maximal inhibitory concentration (IC50) against PIKFYVE [1] is less than 5 nM. In addition, the concentration giving a half-maximal response (EC50) at PIKFYVE [2] is 20 to 100 nM.

As to `CC(=O)Nc1nc(N2CCOCC2)cc(-n2ccc(-c3cccc(C)c3)n2)n1` [Compound 66, N-(4-morpholino-6-(3-(m-tolyl)-1H-pyrazol-1-yl)pyrimidin-2-yl)acetamide], at PIKFYVE [1], the IC50 was less than 5 nM. Moreover, the EC50 on PIKFYVE [2] was 100 to 500 nM.

Take `COC(Cc1ccnn1C)c1nc(N2CCOCC2)cc(-n2ccc(-c3ccccc3)n2)n1` (centres unmarked) [Compound 68, 4-(2-(1-methoxy-2-(1-methyl-1H-pyrazol-5-yl)ethyl)-6-(3-phenyl-1H-pyrazol-1-yl)pyrimidin-4-yl)morpholine]: the IC50 against PIKFYVE [1] was less than 5 nM. This compound displayed a 50% effective concentration (EC50) at PIKFYVE [2] of 100 to 500 nM.

For `COCc1nc(N2CCOCC2)cc(-n2ccc(-c3ccccc3)n2)n1` [Compound 69], the half-inhibitory concentration (IC50) at PIKFYVE [1] fell in the range of 5 to 100 nM. This compound registered an EC50 at PIKFYVE [2] of 500 to 5000 nM.

With `COC(=O)c1ccn(-c2cc(N3CCOCC3)nc(OCCc3cnn(C)c3)n2)n1` [Compound 70], the half-maximal inhibitory concentration (IC50) against PIKFYVE [1] was in the range of 5 to 100 nM. The EC50 on PIKFYVE [2] is more than 5000 nM.

As for `Cn1cc(CCOc2nc(N3CCOCC3)cc(-n3ccc(-c4cccnc4)n3)n2)cn1` [Compound 71, 4-(2-(2-(1-methyl-1H-pyrazol-4-yl)ethoxy)-6-(3-(pyridin-3-yl)-1H-pyrazol-1-yl)pyrimidin-4-yl)morpholine], at PIKFYVE [1], the concentration for half-maximal inhibition (IC50) was less than 5 nM. Also, the EC50 on PIKFYVE [2] lay in the range of 500 to 5000 nM.

As to `COC(CC#N)c1nc(N2CCOCC2)cc(-n2ccc(-c3cccc(C)c3)n2)n1` (centres unmarked) [Compound 72, 3-methoxy-3-(4-morpholino-6-(3-(m-tolyl)-1H-pyrazol-1-yl)pyrimidin-2-yl)propanenitrile], the half-inhibitory concentration (IC50) at PIKFYVE [1] is less than 5 nM. Also, the EC50 at PIKFYVE [2] is 100 to 500 nM.

Regarding `Cc1cccc(-c2ccn(-c3cc(N4CCOCC4)nc(OCCc4cnn(CCN(C)C)c4)n3)n2)c1` [Compound 74, N,N-dimethyl-2-(4-(2-((4-morpholino-6-(3-(m-tolyl)-1H-pyrazol-1-yl)pyrimidin-2-yl)oxy)ethyl)-1H-pyrazol-1-yl)ethan-1-amine], on PIKFYVE [1], the IC50 was less than 5 nM. Moreover, the concentration giving a half-maximal response (EC50) on PIKFYVE [2] lay within 20 to 100 nM.

Regarding `CN(C)Cc1cc(-c2ccccc2)nn1-c1cc(N2CCOCC2)nc(OCCc2cnn(C)c2)n1` [Compound 75, N,N-dimethyl-1-(1-(2-(2-(1-methyl-1H-pyrazol-4-yl)ethoxy)-6-morpholinopyrimidin-4-yl)-3-phenyl-1H-pyrazol-5-yl)methanamine], the IC50 against PIKFYVE [1] was 5 to 100 nM. Also, on PIKFYVE [2], the concentration for a half-maximal effect (EC50) lay in the range of 100 to 500 nM.

On PIKFYVE [1], `Cc1cccc(-c2ccn(-c3cc(N4CCOCC4)nc(C(O)CC#N)n3)n2)c1` (centres unmarked) [Compound 76, 3-hydroxy-3-(4-morpholino-6-(3-(m-tolyl)-1H-pyrazol-1-yl)pyrimidin-2-yl)propanenitrile] came in with a half-inhibitory concentration (IC50) of less than 5 nM. Further, the EC50 on PIKFYVE [2] lay within 20 to 100 nM.

Regarding `COCc1cc(-c2ccccc2)n(-c2cc(N3CCOCC3)nc(OCCc3cnn(C)c3)n2)n1` [Compound 77, 4-(6-(3-(methoxymethyl)-5-phenyl-1H-pyrazol-1-yl)-2-(2-(1-methyl-1H-pyrazol-4-yl)ethoxy)pyrimidin-4-yl)morpholine], the half-inhibitory concentration (IC50) against PIKFYVE [1] is 5 to 100 nM. The 50% effective concentration (EC50) on PIKFYVE [2] fell in the range of 500 to 5000 nM.

On to `COC(c1ccccc1)c1nc(N2CCOCC2)cc(-n2ccc(-c3ccccc3)n2)n1` (centres unmarked) [Compound 78, 4-(2-(methoxy(phenyl)methyl)-6-(3-phenyl-1H-pyrazol-1-yl)pyrimidin-4-yl)morpholine], for which, at PIKFYVE [1], the IC50 was 5 to 100 nM. Further, on PIKFYVE [2], the concentration for a half-maximal effect (EC50) fell in the range of 500 to 5000 nM.

On PIKFYVE [1], `Cn1cc(C(O)CCc2nc(N3CCOCC3)cc(-n3ccc(-c4ccccc4)n3)n2)cn1` (centres unmarked) [Compound 79, 1-(1-methyl-1H-pyrazol-4-yl)-3-(4-morpholino-6-(3-phenyl-1H-pyrazol-1-yl)pyrimidin-2-yl)propan-1-ol] yielded an IC50 of less than 5 nM. This compound also yielded a concentration giving a half-maximal response (EC50) at PIKFYVE [2] of 100 to 500 nM.

Regarding `Cn1cc(C(O)C#Cc2nc(N3CCOCC3)cc(-n3ccc(-c4ccccc4)n3)n2)cn1` (centres unmarked) [Compound 80, 1-(1-methyl-1H-pyrazol-4-yl)-3-(4-morpholino-6-(3-phenyl-1H-pyrazol-1-yl)pyrimidin-2-yl)prop-2-yn-1-ol], the 50% inhibitory concentration (IC50) on PIKFYVE [1] is less than 5 nM. In addition, on PIKFYVE [2], the concentration giving a half-maximal response (EC50) was in the range of 20 to 100 nM.

Regarding `Cc1cccc(-c2ccn(-c3cc(N4CCOCC4)nc(C)n3)n2)c1` [Compound 81, 4-(2-methyl-6-(3-(m-tolyl)-1H-pyrazol-1-yl)pyrimidin-4-yl)morpholine], the concentration for half-maximal inhibition (IC50) at PIKFYVE [1] is less than 5 nM. For the same compound, the concentration for a half-maximal effect (EC50) on PIKFYVE [2] is 100 to 500 nM.

In the case of `Cc1cccc(-c2ccn(-c3cc(N4CCOCC4)nc(C(F)(F)F)n3)n2)c1` [Compound 82], the IC50 against PIKFYVE [1] lay in the range of 5 to 100 nM. In addition, on PIKFYVE [2], the half-maximal effective concentration (EC50) lay in the range of 500 to 5000 nM.

Regarding `COc1nc(N2CCOCC2)c(C)c(-n2ccc(-c3cccc(C)c3)n2)n1` [Compound 83, 4-(2-methoxy-5-methyl-6-(3-(m-tolyl)-1H-pyrazol-1-yl)pyrimidin-4-yl)morpholine], the 50% inhibitory concentration (IC50) against PIKFYVE [1] is 101 to 1000 nM. Further, the 50% effective concentration (EC50) at PIKFYVE [2] is more than 5000 nM.
